Source: patent US8916605B2, “Compounds and methods for treating cancer and viral infections” (priority 2009, dated 2014)

What was measured:
[1] = tested on: SH-SY5Y neuroblastoma cells; experiment: MTT (CIMA) cell proliferation assay, acute and chronic exposure (Example 3); conditions: SH-SY5Y
Experimental: (§5) Compound preparation: Stock solutions of test compounds were prepared in dimethylsulfoxide (DMSO) at 250 mg/ml. Working concentrations of 10 mg/ml were subsequently prepared from the stock solution and stored in 50 μl aliquots at −20° C. until used.
(§6) Cells and cell culture: Proof-of-principle studies in this example focused on two human brain cancer cell lines, namely SH-SY5Y neuroblastoma cells and U373 astroglioma cells. […] Both cells were maintained in (50:50) F12:DMEM medium supplemented with 10% fetal calf serum (FCS) and antibiotics in a humidified, 5% CO2 environment. Cells were passaged as required by trypsinization.
(§7) Assays conditions: The effects of the test compounds were assessed following acute and chronic exposure conditions. […] The test compounds were evaluated over a broad range of concentrations (0, 0.5, 1, 5, 10, 50, 100 and 250 μg/ml) with cells treated with equivalent concentrations of vehicle (DMSO) serving as controls.
(§8) Cell proliferation assay: Cell proliferation was assessed using a standard colorimetric indicator of metabolic activity (CIMA) assay. In this assay, the reduction of yellow tetrazolium salt (MTT) to purple formazan by mitochondrial reductase enzymes in viable cells was evaluated as a measure of metabolic activity to determine the extent of cell proliferation within a culture. The resulting colour change that conferred a change in absorbance was quantified using a spectrophotometer (λ=500-600). Samples were diluted as required to ensure that values obtained with the MTT assay fell within the linear range of the protocol. Qualitative microscopic evaluation of treated cultures was used to determine if overt cytotoxicity was present and to supplement the quantitative CIMA data.

[2] = tested on: Influenza B (strain B/Lee/40); experiment: Anti-influenza cytopathic effect (CPE) assay in MDCK cells, prophylactic regimen (Example 7); assay type: cell-based; design: key to CPE score: 1: Complete monolayer with few gaps or dead cells; 2: Some gaps in the monolayer; dead cells more evident; 3: Increasing number of gaps in the monolayer concurrent with dead cells; 4: Gaps widely distributed throughout the monolayer and of increasing size; 5: Large holes forming as smaller gaps merge; copious dead cells evident; 6: Monolayer integrity lost. Small islands of attached cells amid predominantly dead cells; conditions: for CPE score: Influenza B, MDCK, virus + DMSO control 4
[3] = tested on: U373 astroglioma cells; experiment: MTT (CIMA) cell proliferation assay, acute and chronic exposure (Example 3)
Experimental: as §5, §6, §7, §8

[4] = tested on: SH-SY5Y neuroblastoma cells; experiment: Long term exposure, tetrazole reduction (CIMA) proliferation assay (Example 6); assay type: cell-based; conditions: for AVERAGE (mean absorbance): SHSY5Y
Experimental: (§1) Compound I(a) was termed CMPD A (LI568-026-02).
(§2) Cells were passaged as required by trypsinization.
(§3) Assay conditions: The effects of the test compound were assessed under long term exposure conditions. Cells were propagated as normal in T25 flasks in complete culture media supplemented with comparatively low concentrations of the compound (0, 1 and 5 μg/ml) for 28 days. At various times post-exposure, changes in proliferation rates were assessed using a standard CIMA assay.
(§4) For the current study, cells that have been exposed to the compound were seeded in 96-well plates and proliferation rates measured over 24 and 72 h periods for comparison to that of similarly aged untreated cells.

[5] = tested on: U373 astroglioma cells; experiment: as above; assay type: cell-based
Experimental: as §1, §2, §3, §4

[6] = tested on: NSC34 motor neurons; experiment: MTT (CIMA) cell proliferation assay (Example 4); conditions: 72 h post-treatment
Experimental: as §5
(§9) Cells and cell culture: Three classes of cells were evaluated: 1) neuroblastoma cells, 2) neuroglioma cells, and 3) non-transformed human neurons (see below). All cells were maintained in appropriate culture medium supplemented with 10% fetal calf serum (FCS) and antibiotics in a humidified, 5% CO2 environment. Cells were passaged as required by trypsinization.
(§10) Assay conditions: The effects of the test compounds were assessed following acute and chronic exposure conditions. […] Each compound was evaluated over a broad range of concentrations (0, 0.5, 1, 5, 10, 50, 100 and 250 μg/ml) with cells treated with equivalent concentrations of vehicle (DMSO) serving as controls.
(§11) Cell proliferation assay: Cell proliferation was assessed using a standard colorimetric indicator of metabolic activity (CIMA) assay. In this assay, the reduction of yellow tetrazolium salt (MTT) to purple formazan by mitochondrial reductase enzymes in viable cells was evaluated as a measure of metabolic activity to determine the extent of cell proliferation within a culture. […]

[7] = tested on: MDCK cells; experiment: Cytotoxicity assay (MTT/CIMA) in MDCK cells (Example 7)
[8] = tested on: Influenza A (strain A/PR/8/34); experiment: Anti-influenza cytopathic effect (CPE) assay in MDCK cells, prophylactic regimen (Example 7); assay type: cell-based; design: key to CPE score: 1: Complete monolayer with few gaps or dead cells; 2: Some gaps in the monolayer; dead cells more evident; 3: Increasing number of gaps in the monolayer concurrent with dead cells; 4: Gaps widely distributed throughout the monolayer and of increasing size; 5: Large holes forming as smaller gaps merge; copious dead cells evident; 6: Monolayer integrity lost. Small islands of attached cells amid predominantly dead cells; conditions: for CPE score: Influenza A, MDCK
[9] = tested on: all three transformed neuronal cell lines (IMR32, NG108, NSC34); experiment: MTT (CIMA) cell proliferation assay (Example 4); conditions: 72 h post-treatment; 0.5-250 μg/ml
Experimental: as §5, §9, §10, §11

[10] = both acute and chronic regimens

**Q.** For `O=CCCCN1C(=O)c2ccccc2C1=O` [Compound I(a), 4-(1,3-dioxo-1,3-dihydro-2H-isoindol-2-yl)butanal], which “decrease in MTT activity” value ([1]; acute treatment (24 h), 0.25 mg/ml) is on record?
**A.** approximately 30%

**Q.** And the “change in MTT activity” value ([1]; acute treatment (24 h), other concentrations evaluated (below 0.25 mg/ml))?
**A.** No significant change in MTT activity

**Q.** What about the LD50 [1, 10] of the same molecule?
**A.** exceeds 0.25 mg/ml

**Q.** And the “decrease in MTT activity” value ([1]; chronic treatment (72 h), 50 μg/ml)?
**A.** 25%

**Q.** What about the “decrease in MTT activity” value ([1]; chronic treatment (72 h), 100 μg/ml) of the same molecule?
**A.** 25%

**Q.** And the “decrease in MTT activity” value ([1]; chronic treatment (72 h), 250 μg/ml)?
**A.** 25%

**Q.** What about the “effect on CPE (summary in words)” value ([2]; Influenza B infection) of the same molecule?
**A.** mild to moderate reduction in CPE

**Q.** And the CPE score ([2]; 24 hpi, 0.5 μg/ml)?
**A.** 3

**Q.** And the CPE score ([2]; 24 hpi, 1.0 μg/ml)?
**A.** 3

**Q.** What about the CPE score ([2]; 24 hpi, 5.0 μg/ml) of the same molecule?
**A.** 2

**Q.** And the CPE score ([2]; 24 hpi, 10 μg/ml)?
**A.** 2

**Q.** And the CPE score ([2]; 24 hpi, 25 μg/ml)?
**A.** 4

**Q.** And the CPE score ([2]; 24 hpi, 50 μg/ml)?
**A.** 4

**Q.** What about the CPE score ([2]; 24 hpi, 100 μg/ml) of the same molecule?
**A.** 5

**Q.** What about the CPE score ([2]; 48 hpi, 0.5 μg/ml) of the same molecule?
**A.** 3

**Q.** And the CPE score ([2]; 48 hpi, 1.0 μg/ml)?
**A.** 3

**Q.** And the CPE score ([2]; 48 hpi, 5.0 μg/ml)?
**A.** 3

**Q.** What about the CPE score ([2]; 48 hpi, 10 μg/ml) of the same molecule?
**A.** 3

**Q.** What about the CPE score ([2]; 48 hpi, 25 μg/ml) of the same molecule?
**A.** 4

**Q.** What about the CPE score ([2]; 48 hpi, 50 μg/ml) of the same molecule?
**A.** 5

**Q.** And the CPE score ([2]; 48 hpi, 100 μg/ml)?
**A.** 6

**Q.** What about the “overt cell death / reductions in MTT activity” value ([3]; acute (24 h) and chronic (72 h) treatment, 0.5-250 μg/ml) of the same molecule?
**A.** Neither overt cell death nor significant reductions in MTT activity

**Q.** And the LD50 [3, 10]?
**A.** exceeds 0.25 mg/ml

**Q.** And the “average decrease in activity” value ([4]; SH-SY5Y, long term exposure up to 28 days, 1 and 5 μg/ml)?
**A.** approximately 20%

**Q.** What about the “AVERAGE (mean absorbance)” value ([4]; 14 d incubation with 1 μg/ml, 24 h, control 0 μg/ml 0.492) of the same molecule?
**A.** 0.508

**Q.** And the “AVERAGE (mean absorbance)” value ([4]; 14 d incubation with 5 μg/ml, 24 h, control 0 μg/ml 0.492)?
**A.** 0.388

**Q.** What about the “AVERAGE (mean absorbance)” value ([4]; 21 d incubation with 1 μg/ml, 24 h, control 0 μg/ml 0.307) of the same molecule?
**A.** 0.311

**Q.** And the “AVERAGE (mean absorbance)” value ([4]; 21 d incubation with 1 μg/ml, 72 h, control 0 μg/ml 0.300)?
**A.** 0.268

**Q.** What about the “AVERAGE (mean absorbance)” value ([4]; 21 d incubation with 5 μg/ml, 24 h, control 0 μg/ml 0.307) of the same molecule?
**A.** 0.277

**Q.** What about the “AVERAGE (mean absorbance)” value ([4]; 21 d incubation with 5 μg/ml, 72 h, control 0 μg/ml 0.300) of the same molecule?
**A.** 0.269

**Q.** What about the “AVERAGE (mean absorbance)” value ([4]; 28 d incubation with 1 μg/ml, 24 h, control 0 μg/ml 0.601) of the same molecule?
**A.** 0.597

**Q.** And the “AVERAGE (mean absorbance)” value ([4]; 28 d incubation with 1 μg/ml, 72 h, control 0 μg/ml 0.489)?
**A.** 0.389

**Q.** And the “AVERAGE (mean absorbance)” value ([4]; 28 d incubation with 5 μg/ml, 24 h, control 0 μg/ml 0.601)?
**A.** 0.531

**Q.** And the “AVERAGE (mean absorbance)” value ([4]; 28 d incubation with 5 μg/ml, 72 h, control 0 μg/ml 0.489)?
**A.** 0.423

**Q.** What about the “AVERAGE (mean absorbance)” value ([5]; 14 d incubation with 1 μg/ml, 24 h, control 0 μg/ml 0.569) of the same molecule?
**A.** 0.446

**Q.** What about the “AVERAGE (mean absorbance)” value ([5]; 14 d incubation with 5 μg/ml, 24 h, control 0 μg/ml 0.569) of the same molecule?
**A.** 0.437

**Q.** What about the “AVERAGE (mean absorbance)” value ([5]; 21 d incubation with 1 μg/ml, 24 h, control 0 μg/ml 0.617) of the same molecule?
**A.** 0.575

**Q.** And the “AVERAGE (mean absorbance)” value ([5]; 21 d incubation with 1 μg/ml, 72 h, control 0 μg/ml 0.547)?
**A.** 0.502

**Q.** What about the “AVERAGE (mean absorbance)” value ([5]; 21 d incubation with 5 μg/ml, 24 h, control 0 μg/ml 0.617) of the same molecule?
**A.** 0.539

**Q.** What about the “AVERAGE (mean absorbance)” value ([5]; 21 d incubation with 5 μg/ml, 72 h, control 0 μg/ml 0.547) of the same molecule?
**A.** 0.478

**Q.** What about the “AVERAGE (mean absorbance)” value ([5]; 28 d incubation with 1 μg/ml, 24 h, control 0 μg/ml 0.567) of the same molecule?
**A.** 0.510

**Q.** What about the “AVERAGE (mean absorbance)” value ([5]; 28 d incubation with 1 μg/ml, 72 h, control 0 μg/ml 0.598) of the same molecule?
**A.** 0.507

**Q.** And the “AVERAGE (mean absorbance)” value ([5]; 28 d incubation with 5 μg/ml, 24 h, control 0 μg/ml 0.567)?
**A.** 0.461

**Q.** And the “AVERAGE (mean absorbance)” value ([5]; 28 d incubation with 5 μg/ml, 72 h, control 0 μg/ml 0.598)?
**A.** 0.514

**Q.** And the “average decrease in activity” value ([5]; long term exposure up to 28 days, 1 and 5 μg/ml)?
**A.** approximately 20%

**Q.** What about the LD50 [6] of the same molecule?
**A.** < 0.25 mg/mL

**Q.** And the “Toxicity (MTT), fold changes relative to vehicle controls” value ([7]; 24 h exposure, 0.5 μg/ml)?
**A.** 1.09 fold

**Q.** And the “Toxicity (MTT), fold changes relative to vehicle controls” value ([7]; 24 h exposure, 1.0 μg/ml)?
**A.** 1.24 fold

**Q.** And the “Toxicity (MTT), fold changes relative to vehicle controls” value ([7]; 24 h exposure, 5.0 μg/ml)?
**A.** 1.18 fold

**Q.** And the “Toxicity (MTT), fold changes relative to vehicle controls” value ([7]; 24 h exposure, 10 μg/ml)?
**A.** 1.15 fold

**Q.** And the “Toxicity (MTT), fold changes relative to vehicle controls” value ([7]; 24 h exposure, 25 μg/ml)?
**A.** 1.06 fold

**Q.** What about the “Toxicity (MTT), fold changes relative to vehicle controls” value ([7]; 24 h exposure, 50 μg/ml) of the same molecule?
**A.** 1.08 fold

**Q.** What about the “Toxicity (MTT), fold changes relative to vehicle controls” value ([7]; 24 h exposure, 100 μg/ml) of the same molecule?
**A.** 0.98 fold

**Q.** What about the “Toxicity (MTT), fold changes relative to vehicle controls” value ([7]; 72 h exposure, 0.5 μg/ml) of the same molecule?
**A.** 1.05 fold

**Q.** What about the “Toxicity (MTT), fold changes relative to vehicle controls” value ([7]; 72 h exposure, 1.0 μg/ml) of the same molecule?
**A.** 0.99 fold

**Q.** What about the “Toxicity (MTT), fold changes relative to vehicle controls” value ([7]; 72 h exposure, 5.0 μg/ml) of the same molecule?
**A.** 1.15 fold

**Q.** And the “Toxicity (MTT), fold changes relative to vehicle controls” value ([7]; 72 h exposure, 10 μg/ml)?
**A.** 1.01 fold

**Q.** And the “Toxicity (MTT), fold changes relative to vehicle controls” value ([7]; 72 h exposure, 25 μg/ml)?
**A.** 0.96 fold

**Q.** What about the “Toxicity (MTT), fold changes relative to vehicle controls” value ([7]; 72 h exposure, 50 μg/ml, decreases exceeding 25% considered toxic) of the same molecule?
**A.** 0.71^3 fold

**Q.** And the “Toxicity (MTT), fold changes relative to vehicle controls” value ([7]; 72 h exposure, 100 μg/ml, decreases exceeding 25% considered toxic)?
**A.** 0.56 fold

**Q.** And the “cytotoxicity (summary in words)” value ([7]; higher concentrations (≧25 μg/ml))?
**A.** toxicity associated with the compound itself

**Q.** What about the CPE score ([8]; 0.5 μg/ml, virus + DMSO control 3) of the same molecule?
**A.** 1 ^5

**Q.** And the CPE score ([8]; 0.5 μg/ml, virus + DMSO control 4)?
**A.** 4

**Q.** And the CPE score ([8]; 1.0 μg/ml, virus + DMSO control 3)?
**A.** 1

**Q.** And the CPE score ([8]; 1.0 μg/ml, virus + DMSO control 4)?
**A.** 3

**Q.** And the CPE score ([8]; 5.0 μg/ml, virus + DMSO control 3)?
**A.** 1

**Q.** And the CPE score ([8]; 5.0 μg/ml, virus + DMSO control 4)?
**A.** 3

**Q.** What about the CPE score ([8]; 10 μg/ml, virus + DMSO control 3) of the same molecule?
**A.** 1

**Q.** What about the CPE score ([8]; 10 μg/ml, virus + DMSO control 4) of the same molecule?
**A.** 3

**Q.** What about the CPE score ([8]; 25 μg/ml, virus + DMSO control 3) of the same molecule?
**A.** 1

**Q.** What about the CPE score ([8]; 25 μg/ml, virus + DMSO control 4) of the same molecule?
**A.** 3

**Q.** And the CPE score ([8]; 50 μg/ml, virus + DMSO control 3)?
**A.** 3

**Q.** What about the CPE score ([8]; 50 μg/ml, virus + DMSO control 4) of the same molecule?
**A.** 5

**Q.** And the CPE score ([8]; 100 μg/ml, virus + DMSO control 3)?
**A.** 4

**Q.** And the CPE score ([8]; 100 μg/ml, virus + DMSO control 4)?
**A.** 5

**Q.** And the “effect on CPE (summary in words)” value ([8]; comparatively lower concentrations)?
**A.** mild to moderate reduction in CPE

**Q.** What about the viability/proliferation [9] of the same molecule?
**A.** dose-dependent decreases in viability/proliferation
